Measurements from US7449447B2, “Peptidomimetic NS3-serine protease inhibitors of hepatitis C virus” (priority 2003, dated 2008).
*1 amine or outer side, *2 acyl side, *3 side chain or, on linkers, in order; H or OH if unused. Where a SMILES comes first, the peptide text is derived from it. [ ]: non-standard residue; d: D form. The star is where a group is joined. Pro(3R,4S-CMe2) = CC1(C)[C@@H]2[C@@H](C(=O)O)NC[C@@H]21; X1 = CN(C[C@@H](N*)C(C)(C)C)S(C)(=O)=O; Abu(4,4-F2) = N[C@@H](CC(F)F)C(=O)O; Phe(ol) = N[C@H](CO)Cc1ccccc1; Phg = N[C@H](C(=O)O)c1ccccc1; Tle = CC(C)(C)[C@H](N)C(=O)O; CO = O=C([*:1])[*:2]; NHtBu = CC(C)(C)N*

The compounds below were run against T1, HCV NS3/NS4a serine protease (Hepatitis C virus genotype 1b, UniProt P26663) (assay: Spectrophotometric assay for HCV protease inhibitory activity (chromogenic ester substrates)). Settings: Ki Rating, Table 2; single chain NS4A21-32-GSGS-NS3 3-181 protease, 30° C., pH 6.5.
T1 construct: amino terminus of the NS3 protease domain (amino acids 3-181) with a tetrapeptide linker; made in house; host or cells: E. coli
T1 sequence (P26663 1013-1207, looked up, natural form): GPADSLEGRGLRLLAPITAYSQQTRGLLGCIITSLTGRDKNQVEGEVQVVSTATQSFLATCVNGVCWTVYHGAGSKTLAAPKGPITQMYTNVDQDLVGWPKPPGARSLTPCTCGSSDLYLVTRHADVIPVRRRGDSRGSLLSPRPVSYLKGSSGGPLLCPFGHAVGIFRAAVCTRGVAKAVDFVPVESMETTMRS
Format: biochemical, hepatitis C virus (strain 1b)
Experimental: Spectrophotometric Assay: Spectrophotometric assays for the HCV serine protease were performed on the inventive compounds by following the procedure described by R. Zhang et al., Analytical Biochemistry, 270 (1999) 268-275, the disclosure of which is incorporated herein by reference. The assay based on the proteolysis of chromogenic ester substrates is suitable for the continuous monitoring of HCV NS3 protease activity.
HCV NS3 protease (strain 1b) and its NS4A cofactor were constructed as a recombinant single chain protein. The NS4A cofactor domain (amino acid residues 21-32) was fused in frame to the amino terminus of the NS3 protease domain (amino acids 3-181) with a tetrapeptide linker. This NS4A 21-32-GSGS-NS33-181 construct was then expressed in E. coli and purified to >90% homogeneity. Kinetic parameters were determined and found to be the same as that of the full length NS31-631/NS4A1-54 protein complex produced in the baculovirus system (D. L. Sali et al, Biochemistry, 37 (1998) 3392-340). The details of the cloning, expression, purification and kinetic analysis of the of the single chain recombinant protease have been previously described (S. S. Taremi, et al. Protein Science. 7 (1998) 2143-2149.
Protein concentrations were determined by the Biorad dye method using recombinant HCV protease standards previously quantified by amino acid analysis. Prior to assay initiation, the enzyme storage buffer (50 mM sodium phosphate pH 8.0, 300 mM NaCl, 10% glycerol, 0.05% lauryl maltoside and 10 mM DTT) was exchanged for the assay buffer (25 mM MOPS pH 6.5, 300 mM NaCl, 10% glycerol, 0.05% lauryl maltoside, 5 μM EDTA and 5 μM DTT) utilizing a Biorad Bio-Spin P-6 prepacked column.
Protease Assay: HCV protease assays were performed at 30° C. using a 200 μl reaction mix in a 96-well microtiter plate. Assay buffer conditions (25 mM MOPS pH 6.5, 300 mM NaCl, 10% glycerol, 0.05% lauryl maltoside, 5 μM EDTA and 5 μM DTT) were optimized for the NS3/NS4A heterodimer (D. L. Sali et al, ibid.)). Typically, 100 μl mixtures of buffer, substrate and inhibitor were placed in wells and allowed to preincubate at 30° C. for approximately 3 minutes. One hundred μls of pre-warmed protease (30° C.) in assay buffer, was then used to initiate the reaction to produce a final concentration of 1.3 nM HCV). The Substrate cleavage by the protease was monitored over 60 minutes by measuring the release of the phenylazophenol (PAP) product at an absorbance of 370 nm with a continuous read every 30 seconds using a SpectraMax Plus microtiter plate reader (Molecular Devices, Sunnyvale, Calif.). Background hydrolysis of the substrate was subtracted. Inhibitors were tested over a range of concentrations (final DMSO concentration 4%)
Evaluation of Inhibitors The inhibition constants (Ki) for the competitive inhibitors were determined experimentally at fixed concentrations of enzyme and substrate by plotting vo/vi vs. inhibitor concentration ([I]o) according to the rearranged Michaelis-Menten equation for competitive inhibition kinetics: vo/vi=1+[I]o/(Ki(1+[S]o/Km)), where vo is the uninhibited initial velocity, vi is the initial velocity in the presence of inhibitor at any given inhibitor concentration ([I]o) and [S]o is the substrate concentration used. The resulting data were fitted using linear regression and the resulting slope, 1/(Ki(1+[S]o/Km), was used to calculate the Ki value.
`COC[C@@H](NC(=O)N[C@H](C(=O)N1C[C@H]2[C@@H]([C@H]1C(=O)N[C@@H](CC(F)F)C(=O)NCCc1ccc(C(=O)OC)cc1)C2(C)C)C(C)(C)C)C(C)(C)C` [Example 142] was tested, and the Ki was 100 to 500 nM. For `CC(C)[C@H](NC(=O)N[C@H](C(=O)N1C[C@H]2[C@@H]([C@H]1C(=O)N[C@@H](CC(F)F)C(=O)NCCc1ccc(C(N)=O)cc1)C2(C)C)C(C)(C)C)C(=O)OC(C)(C)C` [Example 126], the Ki was 100 to 500 nM. `CC(C)[C@H](NC(=O)N[C@H](C(=O)N1C[C@H]2[C@@H]([C@H]1C(=O)N[C@@H](CC(F)F)C(N)=O)C2(C)C)C(C)(C)C)C(=O)O` [Example 157] gave a Ki greater than 500 nM. With `CN(C)C(=O)[C@@H](NC(=O)CNC(=O)[C@H](CC(F)F)NC(=O)[C@@H]1[C@@H]2[C@H](CN1C(=O)[C@@H](NC(=O)NC(C)(C)C)C(C)(C)C)C2(C)C)c1ccccc1` [Example 166] ({NHtBu-CO}-[Tle][Pro(3R,4S-CMe2)][Abu(4,4-F2)]G[Phg]-NMe2) the Ki was greater than 500 nM. With `COC(=O)c1ccc(CCNC(=O)C(CC(F)F)NC(=O)[C@@H]2[C@@H]3[C@H](CN2C(=O)[C@@H](NC(=O)N[C@H](C(=O)OC(C)(C)C)C(C)C)C(C)(C)C)C3(C)C)cc1` (stereo partly shown) [Example 138] the Ki was 100 to 500 nM. With `CC(C)[C@H](NC(=O)N[C@H](C(=O)N1C[C@H]2[C@@H]([C@H]1C(=O)NC(CC(F)F)C(=O)O)C2(C)C)C(C)(C)C)C(=O)OC(C)(C)C` (stereo partly shown) [Example 159] the Ki was greater than 500 nM. Compound `CC(C)[C@H](NC(=O)N[C@H](C(=O)N1C[C@H]2[C@@H]([C@H]1C(=O)NC(CC(F)F)C(=O)NCCc1ccc(C(=O)O)cc1)C2(C)C)C(C)(C)C)C(=O)OC(C)(C)C` (stereo partly shown) [Example 129] has a Ki of 100 to 500 nM. `CC(C)(C)OC(=O)[C@@H](NC(=O)N[C@H](C(=O)N1C[C@H]2[C@@H]([C@H]1C(=O)N[C@@H](CC(F)F)C(=O)NCCc1ccc(C(=O)O)cc1)C2(C)C)C(C)(C)C)C(C)(C)C` [Example 127] showed a Ki of 100 to 500 nM.

Same assay, conditions: Ki, Table 1; single chain NS4A21-32-GSGS-NS3 3-181 protease, 30° C., pH 6.5
`CC(C)(C)[C@H](NC(=O)N[C@H](C(=O)N1C[C@H]2[C@@H]([C@H]1C(=O)N[C@@H](CC(F)F)C(=O)NCCc1ccc(C(=O)O)cc1)C2(C)C)C(C)(C)C)C(=O)O` [Example 114] was tested, and the Ki was 90 nM. In the case of `CC(C)(C)[C@H](NC(=O)N[C@H](CN1CCCS1(=O)=O)C(C)(C)C)C(=O)N1C[C@H]2[C@@H](C1C(=O)NC(CC(F)F)C(=O)NCCc1ccc(C(=O)O)cc1Cl)C2(C)C` (stereo partly shown) [Example 102], the Ki is reported as 21 nM.

Same assay, conditions: Ki, Table 3; rating; single chain NS4A21-32-GSGS-NS3 3-181 protease, 30° C., pH 6.5
Work on `CN(C[C@@H](NC(=O)N[C@H](C(=O)N1C[C@H]2[C@@H]([C@H]1C(=O)N[C@@H](CC(F)F)C(=O)NCCc1ccc(Br)cc1)C2(C)C)C(C)(C)C)C(C)(C)C)S(C)(=O)=O` [Example 290] yielded a Ki of less than 100 nM. With `CN(C[C@@H](NC(=O)N[C@H](C(=O)N1C[C@H]2[C@@H]([C@H]1C(=O)N[C@@H](CC(F)F)C(=O)NCCc1ccc(Oc3ccccc3)cc1)C2(C)C)C(C)(C)C)C(C)(C)C)S(C)(=O)=O` [Example 291] the Ki was less than 100 nM. Compound `CN(C[C@@H](NC(=O)N[C@H](C(=O)N1C[C@H]2[C@@H]([C@H]1C(=O)N[C@@H](CC(F)F)C(=O)NCCc1ccc(F)cc1)C2(C)C)C(C)(C)C)C(C)(C)C)S(C)(=O)=O` [Example 265] has a Ki of less than 100 nM. Work on `CCOC(=O)N1CCC(NC(=O)[C@H](CC(F)F)NC(=O)[C@@H]2[C@@H]3[C@H](CN2C(=O)[C@@H](NC(=O)N[C@H](CN(C)S(C)(=O)=O)C(C)(C)C)C(C)(C)C)C3(C)C)CC1` [Example 227] yielded a Ki greater than 500 nM. For `CN(C[C@@H](NC(=O)N[C@H](C(=O)N1C[C@H]2[C@@H]([C@H]1C(=O)N[C@@H](CC(F)F)C(=O)NCCc1c[nH]cn1)C2(C)C)C(C)(C)C)C(C)(C)C)S(C)(=O)=O` [Example 244], the Ki was greater than 500 nM. With `CN(C[C@@H](NC(=O)N[C@H](C(=O)N1C[C@H]2[C@@H]([C@H]1C(=O)N[C@@H](CC(F)F)C(=O)NCCc1ccc(Cl)c(Cl)c1)C2(C)C)C(C)(C)C)C(C)(C)C)S(C)(=O)=O` [Example 285] the Ki was less than 100 nM. `CN(C[C@@H](NC(=O)N[C@H](C(=O)N1C[C@H]2[C@@H]([C@H]1C(=O)N[C@@H](CC(F)F)C(=O)N[C@@H]1CCC[C@H]1OCc1ccccc1)C2(C)C)C(C)(C)C)C(C)(C)C)S(C)(=O)=O` [Example 254] gave a Ki greater than 500 nM. `CN(C[C@@H](NC(=O)N[C@H](C(=O)N1C[C@H]2[C@@H]([C@H]1C(=O)N[C@@H](CC(F)F)C(=O)NCC(C)(C)C)C2(C)C)C(C)(C)C)C(C)(C)C)S(C)(=O)=O` [Example 209] was tested, and the Ki was greater than 500 nM. In the case of `CN(C[C@@H](NC(=O)N[C@H](C(=O)N1C[C@H]2[C@@H]([C@H]1C(=O)N[C@@H](CC(F)F)C(=O)N[C@H]1C[C@@H]1c1ccccc1)C2(C)C)C(C)(C)C)C(C)(C)C)S(C)(=O)=O` [Example 293], the Ki is reported as greater than 500 nM. `COc1ccc(CCNC(=O)[C@H](CC(F)F)NC(=O)[C@@H]2[C@@H]3[C@H](CN2C(=O)[C@@H](NC(=O)N[C@H](CN(C)S(C)(=O)=O)C(C)(C)C)C(C)(C)C)C3(C)C)cc1Cl` [Example 281] showed a Ki of less than 100 nM. For `CN(C[C@@H](NC(=O)N[C@H](C(=O)N1C[C@H]2[C@@H]([C@H]1C(=O)N[C@@H](CC(F)F)C(=O)NCC1CC1)C2(C)C)C(C)(C)C)C(C)(C)C)S(C)(=O)=O` [Example 205], the Ki was greater than 500 nM. `CN(C[C@@H](NC(=O)N[C@H](C(=O)N1C[C@H]2[C@@H]([C@H]1C(=O)N[C@@H](CC(F)F)C(=O)NCCc1ccc3c(c1)OCO3)C2(C)C)C(C)(C)C)C(C)(C)C)S(C)(=O)=O` [Example 272] was tested, and the Ki was less than 100 nM. Work on `COc1ccc(CCNC(=O)[C@H](CC(F)F)NC(=O)[C@@H]2[C@@H]3[C@H](CN2C(=O)[C@@H](NC(=O)N[C@H](CN(C)S(C)(=O)=O)C(C)(C)C)C(C)(C)C)C3(C)C)cc1OC` [Example 280] yielded a Ki of less than 100 nM. In the case of `CN(C[C@@H](NC(=O)N[C@H](C(=O)N1C[C@H]2[C@@H]([C@H]1C(=O)N[C@@H](CC(F)F)C(=O)N[C@H](CO)Cc1ccccc1)C2(C)C)C(C)(C)C)C(C)(C)C)S(C)(=O)=O` [Example 249] ({X1-CO}-[Tle][Pro(3R,4S-CMe2)][Abu(4,4-F2)][Phe(ol)]), the Ki is reported as greater than 500 nM. `CN(C[C@@H](NC(=O)N[C@H](C(=O)N1C[C@H]2[C@@H]([C@H]1C(=O)N[C@@H](CC(F)F)C(=O)NCC1CCCCC1)C2(C)C)C(C)(C)C)C(C)(C)C)S(C)(=O)=O` [Example 213] showed a Ki greater than 500 nM. For `CN(C[C@@H](NC(=O)N[C@H](C(=O)N1C[C@H]2[C@@H]([C@H]1C(=O)N[C@@H](CC(F)F)C(=O)NCCc1c(Cl)cccc1Cl)C2(C)C)C(C)(C)C)C(C)(C)C)S(C)(=O)=O` [Example 284], the Ki was less than 100 nM. In the case of `CN(C[C@@H](NC(=O)N[C@H](C(=O)N1C[C@H]2[C@@H]([C@H]1C(=O)N[C@@H](CC(F)F)C(=O)NCCc1ccc(S(N)(=O)=O)cc1)C2(C)C)C(C)(C)C)C(C)(C)C)S(C)(=O)=O` [Example 201], the Ki is reported as less than 100 nM. `CN(C[C@@H](NC(=O)N[C@H](C(=O)N1C[C@H]2[C@@H]([C@H]1C(=O)N[C@@H](CC(F)F)C(=O)NCCc1cccc(C(F)(F)F)c1)C2(C)C)C(C)(C)C)C(C)(C)C)S(C)(=O)=O` [Example 282] was tested, and the Ki was less than 100 nM. For `CC(CO)NC(=O)[C@H](CC(F)F)NC(=O)[C@@H]1[C@@H]2[C@H](CN1C(=O)[C@@H](NC(=O)N[C@H](CN(C)S(C)(=O)=O)C(C)(C)C)C(C)(C)C)C2(C)C` (stereo partly shown) [Example 230], the Ki was greater than 500 nM. Work on `COc1ccc(CCNC(=O)[C@H](CC(F)F)NC(=O)[C@@H]2[C@@H]3[C@H](CN2C(=O)[C@@H](NC(=O)N[C@H](CN(C)S(C)(=O)=O)C(C)(C)C)C(C)(C)C)C3(C)C)cc1Br` [Example 292] yielded a Ki of less than 100 nM. `CN(C[C@@H](NC(=O)N[C@H](C(=O)N1C[C@H]2[C@@H]([C@H]1C(=O)N[C@@H](CC(F)F)C(=O)N[C@H]1CCCC[C@@H]1OCc1ccccc1)C2(C)C)C(C)(C)C)C(C)(C)C)S(C)(=O)=O` [Example 255] was tested, and the Ki was greater than 500 nM.
